Tested on: MV-4-11 cells
Test: Gene expression microarray analysis (Affymetrix PrimeView) and GSEA
Assay type: cell-based, human
Parameters: RFU PODN (11730768_x_at) / Fold change /veh PODN (11730768_x_at) / RFU LINC00158 (11744669_a_at) / Fold change /veh LINC00158 (11744669_a_at) / RFU DUSP10 (11751237_a_at) / Fold change /veh DUSP10 (11751237_a_at) / RFU ID3 (11757404_x_at) / Fold change /veh ID3 (11757404_x_at) / RFU PLEKHG5 (11737974_s_at) / Fold change /veh PLEKHG5 (11737974_s_at) / RFU LRRC4B (11730491_at) / Fold change /veh LRRC4B (11730491_at) / RFU GIMAP4 (11747438_a_at) / Fold change /veh GIMAP4 (11747438_a_at) / RFU KRT8 (11758183_x_at) / Fold change /veh KRT8 (11758183_x_at) / RFU CNN1 (11734310_a_at) / Fold change /veh CNN1 (11734310_a_at) / RFU VPS37D (11726825_at) / Fold change /veh VPS37D (11726825_at) / RFU C10orf10 (11716522_x_at) / Fold change /veh C10orf10 (11716522_x_at) / RFU KIR2DL2 /// KIR2DL4 /// KIR2DL5A /// KIR2DL5B /// KIR2DS1 /// KIR2DS2 /// KIR2DS3 /// KIR2DS4 /// KIR3DL3 /// KIR3DL3 /// KIR3DS1 (11738374_at) / Fold change /veh KIR2DL2 /// KIR2DL4 /// KIR2DL5A /// KIR2DL5B /// KIR2DS1 /// KIR2DS2 /// KIR2DS3 /// KIR2DS4 /// KIR3DL3 /// KIR3DL3 /// KIR3DS1 (11738374_at) / RFU C1QL1 (11718748_at) / Fold change /veh C1QL1 (11718748_at) / RFU TMPRSS4 (11747572_a_at) / Fold change /veh TMPRSS4 (11747572_a_at) / RFU HAMP (11756126_x_at) / Fold change /veh HAMP (11756126_x_at) / RFU RNFT2 (11725882_a_at) / Fold change /veh RNFT2 (11725882_a_at) / RFU NR4A2 (11747474_a_at) / Fold change /veh NR4A2 (11747474_a_at) / RFU ABCC12 (11746883_a_at) / Fold change /veh ABCC12 (11746883_a_at) / RFU TMEM136 (11760407_x_at) / Fold change /veh TMEM136 (11760407_x_at) / RFU CLDN22 /// WWC2 (11732394_at) / Fold change /veh CLDN22 /// WWC2 (11732394_at) / RFU HLA-DPB1 (11760878_x_at) / Fold change /veh HLA-DPB1 (11760878_x_at) / RFU SPINT1 (11716480_a_at) / Fold change /veh SPINT1 (11716480_a_at) / RFU GAP43 (11754022_s_at) / Fold change /veh GAP43 (11754022_s_at) / RFU A4GNT (11735810_at) / Fold change /veh A4GNT (11735810_at) / RFU PRB3 (11715151_x_at) / Fold change /veh PRB3 (11715151_x_at) / RFU TUBB4B (11761932_at) / Fold change /veh TUBB4B (11761932_at) / RFU CAPN14 (11732068_a_at) / Fold change /veh CAPN14 (11732068_a_at) / RFU TMCC2 (11721928_a_at) / Fold change /veh TMCC2 (11721928_a_at) / RFU IRGQ (11745062_a_at) / Fold change /veh IRGQ (11745062_a_at) / RFU FAM174B (11720279_a_at) / Fold change /veh FAM174B (11720279_a_at) / RFU TMPRSS4 (11748680_a_at) / Fold change /veh TMPRSS4 (11748680_a_at) / RFU FAM212B (11763350_a_at) / Fold change /veh FAM212B (11763350_a_at) / RFU PLEKHG5 (11743358_a_at) / Fold change /veh PLEKHG5 (11743358_a_at) / RFU ZSCAN30 (11745921_a_at) / Fold change /veh ZSCAN30 (11745921_a_at) / RFU CMKLR1 (11741424_a_at) / Fold change /veh CMKLR1 (11741424_a_at) / RFU LOC101060620 /// MAPK8IP1 (11723275_at) / Fold change /veh LOC101060620 /// MAPK8IP1 (11723275_at) / RFU SPTSSB (11747773_x_at) / Fold change /veh SPTSSB (11747773_x_at) / RFU PRSS12 (11739890_at) / Fold change /veh PRSS12 (11739890_at) / RFU BIN1 (11741810_x_at) / Fold change /veh BIN1 (11741810_x_at) / RFU WNT11 (11732464_a_at) / Fold change /veh WNT11 (11732464_a_at) / RFU C10orf10 (11716521_a_at) / Fold change /veh C10orf10 (11716521_a_at) / RFU C5orf56 (11738089_at) / Fold change /veh C5orf56 (11738089_at) / RFU CYB561 (11721691_x_at) / Fold change /veh CYB561 (11721691_x_at) / RFU ANKRD19P (11752326_a_at) / Fold change /veh ANKRD19P (11752326_a_at) / RFU OR2T12 /// OR2T33 /// OR2T8 (11738714_s_at) / Fold change /veh OR2T12 /// OR2T33 /// OR2T8 (11738714_s_at) / RFU VCAN (11748164_a_at) / Fold change /veh VCAN (11748164_a_at) / RFU JSRP1 (11732532_at) / Fold change /veh JSRP1 (11732532_at) / RFU KRTAP10-11 (11738290_x_at) / Fold change /veh KRTAP10-11 (11738290_x_at) / RFU MYO3A (11730013_a_at) / Fold change /veh MYO3A (11730013_a_at) / RFU EBF3 (11725865_a_at) / Fold change /veh EBF3 (11725865_a_at) / RFU CAMK2N1 (11719241_x_at) / Fold change /veh CAMK2N1 (11719241_x_at) / RFU C5orf56 (11738088_a_at) / Fold change /veh C5orf56 (11738088_a_at) / RFU OLFML3 (11715873_a_at) / Fold change /veh OLFML3 (11715873_a_at) / RFU LOC100653217 /// NTM (11731650_a_at) / Fold change /veh LOC100653217 /// NTM (11731650_a_at) / RFU MAPK11 (11762145_a_at) / Fold change /veh MAPK11 (11762145_a_at) / RFU FIZ1 (11724087_x_at) / Fold change /veh FIZ1 (11724087_x_at) / RFU OASL (11726364_x_at) / Fold change /veh OASL (11726364_x_at) / RFU SOX15 (11748057_x_at) / Fold change /veh SOX15 (11748057_x_at) / RFU CD79A (11719716_a_at) / Fold change /veh CD79A (11719716_a_at) / RFU HIST1H1D (11736915_at) / Fold change /veh HIST1H1D (11736915_at) / RFU CASKIN2 (11723855_a_at) / Fold change /veh CASKIN2 (11723855_a_at) / RFU LOC730098 (11760151_x_at) / Fold change /veh LOC730098 (11760151_x_at) / RFU OR4N2 (11742367_at) / Fold change /veh OR4N2 (11742367_at) / RFU PRRT2 (11749266_a_at) / Fold change /veh PRRT2 (11749266_a_at) / RFU SNX32 (11753110_a_at) / Fold change /veh SNX32 (11753110_a_at) / RFU CDHR5 (11726645_a_at) / Fold change /veh CDHR5 (11726645_a_at) / RFU RCAN1 (11760418_a_at) / Fold change /veh RCAN1 (11760418_a_at) / RFU FAM167A (11723789_a_at) / Fold change /veh FAM167A (11723789_a_at) / RFU FAM26E (11764081_at) / Fold change /veh FAM26E (11764081_at) / RFU ISYNA1 (11749810_s_at) / Fold change /veh ISYNA1 (11749810_s_at) / RFU ACY1 (11761880_at) / Fold change /veh ACY1 (11761880_at) / RFU 11764098_at / Fold change /veh 11764098_at / RFU SAMD14 (11745864_x_at) / Fold change /veh SAMD14 (11745864_x_at) / RFU NPB (11741838_a_at) / Fold change /veh NPB (11741838_a_at) / RFU TMPRSS6 (11731388_a_at) / Fold change /veh TMPRSS6 (11731388_a_at) / RFU KRTAP10-2 (11738614_at) / Fold change /veh KRTAP10-2 (11738614_at) / RFU ARHGAP8 /// PRR5-ARHGAP8 (11727945_x_at) / Fold change /veh ARHGAP8 /// PRR5-ARHGAP8 (11727945_x_at) / RFU KRTAP5-7 /// NADSYN1 (11734609_at) / Fold change /veh KRTAP5-7 /// NADSYN1 (11734609_at) / RFU RASL12 (11751679_a_at) / Fold change /veh RASL12 (11751679_a_at) / RFU CDKN2B (11736163_a_at) / Fold change /veh CDKN2B (11736163_a_at) / RFU PRF1 (11729649_at) / Fold change /veh PRF1 (11729649_at) / RFU, ZNF638 /// ZNF638-IT1 / Fold change vs veh, ZNF638 /// ZNF638-IT1 / RFU, PANK3 / Fold change vs veh, PANK3 / RFU, SH3YL1 / Fold change vs veh, SH3YL1 / RFU, ZEB2 / Fold change vs veh, ZEB2 / RFU, NRIP1 / Fold change vs veh, NRIP1 / RFU, PTTG1IP / Fold change vs veh, PTTG1IP / RFU, CAPN2 / Fold change vs veh, CAPN2 / RFU, MED14 / Fold change vs veh, MED14 / RFU, SNORA58 / Fold change vs veh, SNORA58 / RFU, C1orf63 / Fold change vs veh, C1orf63 / RFU, LRRFIP1 / Fold change vs veh, LRRFIP1 / RFU, NDUFAF7 / Fold change vs veh, NDUFAF7 / RFU, SLC12A2 / Fold change vs veh, SLC12A2 / RFU, IBTK / Fold change vs veh, IBTK / RFU, ESF1 / Fold change vs veh, ESF1 / Fold change vs veh, TMEM50B / RFU, TAOK1 / Fold change vs veh, TAOK1 / RFU, ACBD3 / Fold change vs veh, ACBD3 / RFU, TMA16 / Fold change vs veh, TMA16 / RFU, RWDD3 / Fold change vs veh, RWDD3 / RFU, BCAT1 / Fold change vs veh, BCAT1 / RFU, EDEM3 / Fold change vs veh, EDEM3 / RFU, TMEM33 / Fold change vs veh, TMEM33 / RFU, WDR75 / Fold change vs veh, WDR75 / RFU, AHCTF1 / Fold change vs veh, AHCTF1 / RFU, TFRC / Fold change vs veh, TFRC / RFU, ZDHHC17 / Fold change vs veh, ZDHHC17 / RFU, NOM1 / Fold change vs veh, NOM1 / RFU, ARL8B / Fold change vs veh, ARL8B / RFU, ZBTB11 / Fold change vs veh, ZBTB11 / RFU, TAMM41 / Fold change vs veh, TAMM41 / RFU, KIAA1704 /// LOC100996395 / Fold change vs veh, KIAA1704 /// LOC100996395 / RFU, ING1 / Fold change vs veh, ING1 / RFU, TRMT61B / Fold change vs veh, TRMT61B / RFU, FUBP3 / Fold change vs veh, FUBP3 / RFU, TP53 / Fold change vs veh, TP53 / RFU, TNKS2 / Fold change vs veh, TNKS2 / RFU, ZFP14 / Fold change vs veh, ZFP14 / RFU, ACTR2 / Fold change vs veh, ACTR2 / RFU, PPP3R1 / Fold change vs veh, PPP3R1 / RFU, PIK3R1 / Fold change vs veh, PIK3R1 / RFU, HNRNPA1 / Fold change vs veh, HNRNPA1 / RFU, RNF170 / Fold change vs veh, RNF170 / RFU, ZNF28 / Fold change vs veh, ZNF28 / RFU, RNGTT / Fold change vs veh, RNGTT / RFU, OGT / Fold change vs veh, OGT / RFU, BRD1 / Fold change vs veh, BRD1 / RFU, MARS / Fold change vs veh, MARS / RFU, ZNF655 / Fold change vs veh, ZNF655 / RFU, FAHD1 / Fold change vs veh, FAHD1 / RFU, BDP1 / Fold change vs veh, BDP1 / RFU, LRRCC1 / Fold change vs veh, LRRCC1 / RFU, ARID1A / Fold change vs veh, ARID1A / RFU, ZNF146 / Fold change vs veh, ZNF146 / RFU, ZNF330 / Fold change vs veh, ZNF330 / RFU, GPN3 / Fold change vs veh, GPN3 / RFU, C9orf123 / Fold change vs veh, C9orf123 / RFU, N4BP2L2 / Fold change vs veh, N4BP2L2 / RFU, ARFIP1 / Fold change vs veh, ARFIP1 / RFU, FAM179B / Fold change vs veh, FAM179B / RFU, BCL10 / Fold change vs veh, BCL10 / RFU, UHRF1BP1L / Fold change vs veh, UHRF1BP1L / RFU, BET1 / Fold change vs veh, BET1 / RFU, CNOT2 / Fold change vs veh, CNOT2 / RFU, ZNF268 / Fold change vs veh, ZNF268 / Fold change vs veh, ZNF507 / RFU, DGCR2 / Fold change vs veh, DGCR2 / RFU, WDSUB1 / Fold change vs veh, WDSUB1 / Fold change vs veh, HSP90B1 /// MIR3652 / RFU, ADSS / Fold change vs veh, ADSS / RFU, GK / Fold change vs veh, GK / RFU, ZNF148 / Fold change vs veh, ZNF148 / RFU, TAF9 / Fold change vs veh, TAF9 / RFU, SLC1A5 / Fold change vs veh, SLC1A5 / RFU, SLMO2 / Fold change vs veh, SLMO2 / RFU, ABCC4 / Fold change vs veh, ABCC4 / RFU, LOC101060439 /// RAP1B / Fold change vs veh, LOC101060439 /// RAP1B / RFU, RFX7 / Fold change vs veh, RFX7 / RFU, GTPBP10 / Fold change vs veh, GTPBP10 / RFU, CNEP1R1 / Fold change vs veh, CNEP1R1 / RFU, BIVM-ERCC5 /// ERCC5 / Fold change vs veh, BIVM-ERCC5 /// ERCC5 / RFU, ILF3 / Fold change vs veh, ILF3 / RFU 11762660_at / Fold change /veh 11762660_at / RFU VCAN (11757783_s_at) / Fold change /veh VCAN (11757783_s_at) / RFU DDX43 (11728927_at) / Fold change /veh DDX43 (11728927_at) / RFU KRT8 (11758188_x_at) / Fold change /veh KRT8 (11758188_x_at) / RFU NKD1 (11759106_at) / Fold change /veh NKD1 (11759106_at) / RFU SRD5A1 (11742802_a_at) / Fold change /veh SRD5A1 (11742802_a_at) / RFU TPSAB1 /// TPSB2 (11721975_s_at) / Fold change /veh TPSAB1 /// TPSB2 (11721975_s_at) / RFU GSTM3 (11746129_a_at) / Fold change /veh GSTM3 (11746129_a_at) / RFU IL23R (11737362_x_at) / Fold change /veh IL23R (11737362_x_at) / RFU TMEM51 (11727254_a_at) / Fold change /veh TMEM51 (11727254_a_at) / RFU PIWIL2 (11732686_x_at) / Fold change /veh PIWIL2 (11732686_x_at) / RFU ORM1 (11744905_x_at) / Fold change /veh ORM1 (11744905_x_at) / RFU CCDC152 (11743942_at) / Fold change /veh CCDC152 (11743942_at) / RFU ECM1 (11717891_a_at) / Fold change /veh ECM1 (11717891_a_at) / RFU IL23R (11748794_a_at) / Fold change /veh IL23R (11748794_a_at) / RFU TNFAIP8L3 (11732012_x_at) / Fold change /veh TNFAIP8L3 (11732012_x_at) / RFU MBOAT4 (11741988_at) / Fold change /veh MBOAT4 (11741988_at) / RFU 11764193_at / Fold change /veh 11764193_at / RFU TMEM53 (11763286_at) / Fold change /veh TMEM53 (11763286_at) / RFU MAGEB2 (11727129_at) / Fold change /veh MAGEB2 (11727129_at) / RFU TMEM200A (11744735_a_at) / Fold change /veh TMEM200A (11744735_a_at) / RFU CCDC152 (11751479_a_at) / Fold change /veh CCDC152 (11751479_a_at) / RFU FAM211A (11726209_a_at) / Fold change /veh FAM211A (11726209_a_at) / RFU RGS16 (11746705_a_at) / Fold change /veh RGS16 (11746705_a_at) / RFU VCAN (11755009_s_at) / Fold change /veh VCAN (11755009_s_at) / RFU RHOB (11743442_s_at) / Fold change /veh RHOB (11743442_s_at) / RFU RGS16 (11720943_a_at) / Fold change /veh RGS16 (11720943_a_at) / RFU RGS16 (11720944_at) / Fold change /veh RGS16 (11720944_at) / RFU, VPS4B / Fold change vs veh, VPS4B / RFU, CREB1 / Fold change vs veh, CREB1 / RFU, DNAJC13 / Fold change vs veh, DNAJC13 / RFU, GNAQ / Fold change vs veh, GNAQ / RFU, CDK5R1 / Fold change vs veh, CDK5R1 / RFU, ZRANB3 / Fold change vs veh, ZRANB3 / RFU, CUL4A / Fold change vs veh, CUL4A / RFU, CCNY / Fold change vs veh, CCNY / RFU, UFL1 / Fold change vs veh, UFL1 / RFU, COG3 / Fold change vs veh, COG3 / RFU, DIAPH2 / Fold change vs veh, DIAPH2 / RFU, SKA2 / Fold change vs veh, SKA2 / RFU, AFF3 / Fold change vs veh, AFF3 / RFU, LMF1 / Fold change vs veh, LMF1 / RFU, IPO11 / Fold change vs veh, IPO11 / RFU, DFFB / Fold change vs veh, DFFB / RFU, FOXP1 / Fold change vs veh, FOXP1 / RFU, CARD8 / Fold change vs veh, CARD8 / RFU, STRN3 / Fold change vs veh, STRN3 / RFU, ADK / Fold change vs veh, ADK / RFU, RASSF2 / Fold change vs veh, RASSF2 / RFU, WIPF1 / Fold change vs veh, WIPF1 / RFU, LARP1B / Fold change vs veh, LARP1B / RFU, RASA1 / Fold change vs veh, RASA1 / RFU, RB1 / Fold change vs veh, RB1 / RFU, PPFIA1 / Fold change vs veh, PPFIA1 / RFU, MAT2A / Fold change vs veh, MAT2A / RFU, CCT5 / Fold change vs veh, CCT5 / RFU, WDR92 / Fold change vs veh, WDR92 / RFU, CUX1 / Fold change vs veh, CUX1 / RFU, TTC7A / Fold change vs veh, TTC7A / RFU, TMEM135 / Fold change vs veh, TMEM135 / RFU, DEPTOR / Fold change vs veh, DEPTOR / RFU, CPM / Fold change vs veh, CPM / RFU, DNAJB6 / Fold change vs veh, DNAJB6 / RFU, CACNA2D3 / Fold change vs veh, CACNA2D3 / RFU, DTX4 / Fold change vs veh, DTX4 / RFU, TFCP2 / Fold change vs veh, TFCP2 / RFU, GMCL1 /// GMCL1P1 / Fold change vs veh, GMCL1 /// GMCL1P1 / RFU, AEBP2 / Fold change vs veh, AEBP2 / RFU, SNHG1 /// SNORD22 /// SNORD25 /// SNORD26 /// SNORD27 /// SNORD28 /// SNORD29 /// SNORD31 / Fold change vs veh, SNHG1 /// SNORD22 /// SNORD25 /// SNORD26 /// SNORD27 /// SNORD28 /// SNORD29 /// SNORD31 / Fold change (Aza/veh), C12orf56 (ProbeSet 11735607_a_at) / Fold change (ACY-1035/veh), C12orf56 (ProbeSet 11735607_a_at) / Fold change (Aza/veh), FGFR1OP (ProbeSet 11751329_s_at) / Fold change (ACY-1035/veh), FGFR1OP (ProbeSet 11751329_s_at) / Fold change (Aza/veh), VPS36 (ProbeSet 11739960_a_at) / Fold change (ACY-1035/veh), VPS36 (ProbeSet 11739960_a_at) / RFU SYPL1 (11715823_x_at) / Fold change /veh SYPL1 (11715823_x_at) / RFU IGFBP7 (11715501_s_at) / Fold change /veh IGFBP7 (11715501_s_at) / RFU REEP3 (11722064_at) / Fold change /veh REEP3 (11722064_at) / RFU IGLL1 (11728026_x_at) / Fold change /veh IGLL1 (11728026_x_at): dose or concentration left out as unconfirmed
Settings: MV-4-11 cells, 48 hours

Nc1ncn([C@@H]2O[C@H](CO)[C@@H](O)[C@H]2O)c(=O)n1 [azacitidine]
Fold change /veh EBF3 (11725865_a_at): 1.12

— PMC5218480 (PLoS ONE, 2017)
